Assay results: patent publication US11390591B2, “2,4,6-trisubstituted s-triazine compound, preparation method therefor, and use thereof” (Aluda Pharmaceuticals, Inc., priority 2016, dated 2022)
Read-outs that look alike come from different tables or passages of the source.

Columns and labels:
[1] = system: cell lines of human brain glioma (U87); assay: In vitro antineoplastic activity, MTT experiment, U87; type: cell-based
Description: (§1) MTT, RPM1640 culture medium, fetal bovine serum, 96-well plate, CO2 thermostatic incubator, American BIO-RAD680 microplate reader, cell lines of human non-small cell lung cancer (H522), and cell lines of human brain glioma (U87) were all obtained commercially.
(§2) (1) Cell inoculation: A single cell suspension was prepared with culture media supplemented with 10% fetal bovine serum, plated into a 96-well plate with 5000 cells per well, each well having a volume of 100 μL, and cultured overnight.
(§3) (2) Preparation of compound solutions: a DMSO stock solution of a compound was diluted on a sterile bench with a culture medium into 5 concentrations to be tested, wherein a double dilution was employed between two adjacent concentrations.
(§4) (3) The compound solutions of various concentrations were added into the 96-well plate cultured overnight, with 100 μL added per well, triplicated wells for each concentration. Since the peripheral wells can have edge effect and are susceptible to contamination, no cells or compounds were added thereto; instead, 100 μL culture solution was added as a blank. Additionally, 100% wells were set to contain the cells and 100 μL culture media without any compound. The plates were incubated in a thermostatic incubator at 37° C. for 48 hours.
(§5) (4) Staining: 10 μL MTT solution (5 mg/mL, prepared with PBS) was added into the 96-well plate for staining. After incubation for 4 hours, centrifugation was performed at 2500 rpm for 10 minutes. Then, a multiple pipette was used to suck the culture solution out of the wells carefully without sucking out the cells while the pipette tip faced downward. 150 μL DMSO was added and shaken on a shaker for 5-10 minutes. Crystals were allowed to dissolve fully, and an OD value for each well was measured using the microplate reader at 570 nm. The inhibition rate was calculated as follows: Inhibition rate (%)=(average OD value of 100% wells−average OD value of compound wells)/(average OD value of 100% wells−average OD value of blank wells)×100%

human glioma U87 cells = assay: Tumor cell vacuolization (methuosis) scoring, U87; type: cell-based; set-up: key to Vacuolation Score: 5 scores were given when obvious vacuolization occurred at 10 nM; 4 scores at 31.6 nM; 3 scores at 100 nM; 2 scores at 316 nM; 1 score at 1000 nM; 0 score was given if no vacuolation occurred at any concentration; settings: for Vacuolation Score: 0.01-3.160 μM, microscope
Description: (§6) FIG. 2. Vacuolization of tumor cells. 100 microliter culture medium (RPMI1640, 2 mmol glutamine, 10% fetal bovine serum) containing 10^3 human colon adenocarcinoma cells (HCT15) or human brain glioma cells (U87) and a solvent DMSO control or 100 nM #40 compound (L16) was plated into a 96-well cell culture plate, and cell morphological image was taken under a phase contrast microscope after cultured at 5% CO2 and 37° C. for 96 hours.
Some cells gradually became round and eventually bursted. These changes are consistent with the features of cell death by methuosis (FIG. 2).
In order to compare the ability of different compounds to cause cell vacuolization, 100 μL culture media (RPMI1640, 2 mmol glutamine, 10% fetal bovine serum) comprising 10^3 human glioma U87 cells and final concentrations of 0.01, 0.0316, 0.1, 0.316, 1.0, 3.160 μM respectively of the compounds to be tested were inoculated into a 96-well culture plate. After cultured at 5% CO2 and 37° C. for 96 hours, cell morphology was observed under a high-magnification microscope, and the ability of the compounds to cause cell vacuolization was scored. 5 scores were given when obvious vacuolization occurred at 10 nM, 4 scores at 31.6 nM, 3 scores at 100 nM, 2 scores at 316 nM, 1 score at 1000 nM, and 0 score was given if no vacuolation occurred at any concentration.

[2] = system: human colon adenocarcinoma cells (HCT15); assay: Tumor cell vacuolization, HCT15; type: cell-based; settings: 100 nM, 96 hours, phase contrast microscope
Description: as §6

[3] = system: cell lines of human non-small cell lung cancer (H522); assay: In vitro antineoplastic activity, MTT experiment, H522; type: cell-based; settings: H522 cells, 48 hours, highest concentration tested 31.6 μM (>30: inhibition rate <50%)
Description: as §1, §2, §3, §4, §5

vimentin = molecular target: T1, vimentin (Homo sapiens, UniProt P08670); assay: Fishing of a target protein with a probe (photo-crosslinking, click reaction, MALDI-MS/MS); type: binding; settings: 0.5 μM probe, U87 cells, 3 hours, UV crosslinking
T1 construct: #79 compound used as a probe is bonded in situ to a target protein within a cell; endogenous in cells; host or cells: U87 human glioma cells
T1 sequence (P08670 whole entry): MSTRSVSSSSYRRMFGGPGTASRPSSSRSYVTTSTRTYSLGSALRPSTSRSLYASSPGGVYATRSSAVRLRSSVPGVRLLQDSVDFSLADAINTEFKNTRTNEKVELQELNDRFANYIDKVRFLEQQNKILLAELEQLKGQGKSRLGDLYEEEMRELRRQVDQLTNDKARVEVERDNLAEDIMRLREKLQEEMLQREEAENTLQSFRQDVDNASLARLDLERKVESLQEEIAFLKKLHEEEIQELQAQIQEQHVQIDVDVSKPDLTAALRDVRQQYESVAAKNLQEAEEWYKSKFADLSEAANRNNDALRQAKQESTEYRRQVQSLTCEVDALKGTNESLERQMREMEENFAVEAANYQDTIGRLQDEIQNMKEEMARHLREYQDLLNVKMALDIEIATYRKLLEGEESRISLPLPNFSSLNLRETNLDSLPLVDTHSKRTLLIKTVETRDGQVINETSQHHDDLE
Description: FIG. 4 summarizes isolation and identification of a target protein corresponding to a compound causing cell vacuolization. The related steps are described briefly as follows.
An amount of human glioma cells U87 were plated in an 150 cm^2 Petri dish and cultured for 48 hours to reach 75-90% confluence. The culture medium was replaced with a prewarmed medium containing either 0.5 μM probe (#79 compound) or an equivalent volume of DMSO control. The cells continued in culture for 3 hours.
The cells were washed twice with a prechilled phosphate buffer saline (PBS). The cell-culture dish was placed on ice, and the cells were irradiated with ultraviolet light (an ultraviolet lamp having a power of 100 W, wavelength 350 nm, or 315-385 nm) through the top of the dish for 1 hour. Alternatively, a minimal amount of prechilled PBS (10 ml/150 cm^2) was added to the cell-culture dish which was then placed on an ultraviolet irradiator. The bottom of the cell-culture dish received irradiation for 30 minutes (wavelength 315-385 nm, time being adjusted in light of the ultraviolet power).
The cells were dissociated with trypsin, precipitated by centrifugation, and washed twice with PBS. […] The protein concentration of the cell lysate was measured using the Bradford method. […]

[4] = U87 cells, MTT, 48 hours, highest concentration tested 31.6 μM, read-out: IC50(μM) U87
[5] = ability to inhibit cell proliferation, U87 (FIG. 3), unit inferred, read-out: IC50

Compound | IC50 [1, 4] [µM] | IC50 [1, 5] [µM] | vacuolization of U87 cells (human glioma U87 cells; 100 nM, 96 hours, phase contrast microscope) | Vacuolation Score (human glioma U87 cells; U87 cells, 96 hours) | vacuolization of HCT15 cells [2] | IC50 [3] [µM] | target protein of the compound (vimentin) | ability to cause cell vacuolization (in words) (human glioma U87 cells; U87 cells, among the compounds tested)
O=C(Nc1ccc(Cl)cc1)Nc1ccc(Nc2nc(/C=C/c3cccc([N+](=O)[O-])c3)nc(N3CCOCC3)n2)cc1 [L16, (E)-1-(4-chlorophenyl)-3-(4-(4-(morpholin-1-yl)-6-(3-nitrostyrenyl)-1,3,5-triazinyl-2-amino)phenyl)urea] | 1.71 ± 0.06 | 1.71 | significant vaculization | 4 (4 scores at 31.6 nM) | significant vaculization | 0.78 ± 0.04 | – | –
C#CCCC1(CCNC(=O)c2ccc(NC(=O)Nc3ccc(Nc4nc(/C=C/c5ccccc5)nc(N5CCOCC5)n4)cc3)cc2)N=N1 [compound 79, (E)-N-(2-(3-(1-butyn-4-yl)-3H-diaziridin-3-yl)ethyl)-4-(3-(4-((4-(morpholin-1-yl)-6-styrenyl-1,3,5-triazin-2-yl)amino)phenyl)urea)benzamide] | – | – | – | 4.5 | – | – | vimentin | same cell phenotype
CN1CCN(c2nc(/C=C/c3cccc(Cl)c3)nc(Nc3cccc(NC(=O)Nc4ccc(Cl)cc4)c3)n2)CC1 [L26, (E)-1-(4-chlorophenyl)-3-(3-(4-(4-methylpiperazin-1-yl)-6-(3-chlorostyrenyl)-1,3,5-triazinyl-2-amino)phenyl)urea] | 3.95 ± 0.67 | 3.94 | – | 0 | – | 5.48 ± 0.76 | – | –
